One assay concerns the target DCN1 protein (Homo sapiens (Human), UniProt Q96GG9). Put plainly: Intact protein MS analysis with the RapidFire-TOF system (covalent adduct formation). It is filed as binding. The note with it: 400 nM DCN1, incubated at room temperature for 3 hours. Put shortly: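 Tag-free His-TEV-DCN1 expressed in E. coli at 400 nM in 25 mM Tris-HCl, 200 mM NaCl, 1 mM DTT, incubated with 11 compound concentrations at room temperature for 3 h unless otherwise specified. Quenched with 0.2% formic acid; intact-protein RapidFire Q-TOF MS, deconvoluted to detect parent and compound-adduct masses.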

The target in assay [1] is DCN1 (DCUND1) protein PONY domain (Homo sapiens (Human), UniProt Q96GG9). Kind of assay: TR-FRET assay (binding to DCN-1, displacement of FAM-labeled probe). Put shortly:
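Compounds read at 1, 5 and 24 h, 0.1% final DMSO, by TR-FRET between terbium-streptavidin on biotinylated DCN1 PONY domain (E. coli) and a FAM-tagged non-covalent inhibitor probe. Two setups used, 5 nM protein with 20 nM labelled probe, or 0.31 nM protein with 100 nM labelled plus 800 nM unlabelled probe; buffer had TritonX and 200 mM NaCl. % activity relative to high (with probe) and low (without probe) controls.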
In general terms: In TR-FRET formats the signal depends on donor and acceptor labels being close together.

Where [2] appears, read: 24 hr after treatment with compound, read-out: TR FRET IC50 24 hr.

Structures are written as SMILES. Like-named read-outs stand apart in the source and are kept apart here.

Chain of DCN1 (DCUND1) protein PONY domain (Q96GG9 60-248): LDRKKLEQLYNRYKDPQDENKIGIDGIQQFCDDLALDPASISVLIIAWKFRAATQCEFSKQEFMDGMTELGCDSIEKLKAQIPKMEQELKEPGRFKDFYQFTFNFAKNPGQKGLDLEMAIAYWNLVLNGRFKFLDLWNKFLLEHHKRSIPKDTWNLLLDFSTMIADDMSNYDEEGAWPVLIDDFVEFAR
Chain of DCN1 protein (Q96GG9 whole entry): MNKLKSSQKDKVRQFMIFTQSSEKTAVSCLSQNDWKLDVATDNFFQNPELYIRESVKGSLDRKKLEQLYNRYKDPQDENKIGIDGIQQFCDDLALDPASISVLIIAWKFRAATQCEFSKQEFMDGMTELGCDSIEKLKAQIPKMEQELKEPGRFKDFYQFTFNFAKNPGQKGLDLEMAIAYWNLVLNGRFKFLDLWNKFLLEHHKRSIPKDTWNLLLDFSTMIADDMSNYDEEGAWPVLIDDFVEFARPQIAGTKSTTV

One may read the Emax as the size of the effect at its maximum, as opposed to the concentration needed. What is called IC50 is the concentration needed to halve the response being measured. In the case of `C/C=C(\CN1CCN(C2COC2)CC1)C(=O)Nc1cccc([C@@H]2c3cnn(-c4ccccc4)c3N(CC)C(=O)[C@H]2NC(=O)c2csc(C(F)(F)F)n2)c1` [Compound I-234, N-((4R,5S)-7-ethyl-4-(3-((E)-2-((4-(oxetan-3-yl)piperazin-1-yl)methyl)but-2-enamido)phenyl)-6-oxo-1-phenyl-4,5,6,7-tetrahydro-1H-pyrazolo[3,4-b]pyridin-5-yl)-2-(trifluoromethyl)thiazole-4-carboxamide], the Emax on DCN1 protein was 80 to 100%. Further, the concentration for half-maximal inhibition (IC50) in assay [1] (setting [2]) was at most 200 nM; in assay [1] (TR FRET IC50 1 hr (nM), 1 hr after treatment with compound) it was at most 200 nM.
As to `C=C(CN1CCOCC1)C(=O)Nc1cccc([C@@H]2c3c(C)nn(-c4ccccc4)c3N(CC)C(=O)[C@H]2NC(=O)c2cccc(C(F)(F)F)c2)c1` [Compound I-2, N-((4R,5S)-7-ethyl-3-methyl-4-(3-(2-(morpholinomethyl)acrylamido)phenyl)-6-oxo-1-phenyl-4,5,6,7-tetrahydro-1H-pyrazolo[3,4-b]pyridin-5-yl)-3-(trifluoromethyl)benzamide], the Emax at DCN1 protein lay in the range of 80 to 100%. Further, the IC50 in assay [1] (setting [2]) is at most 200 nM; in assay [1] (read-out: TR FRET IC50 1 hr, 1 hr after treatment with compound), at most 200 nM.

These data come from patent US12435087B2, “Modulators of DCN-1 and methods of use thereof” (Cellarity, Inc., priority 2023, dated 2025).
